Measurements reported in article PMC7801115, “Preclinical in vitro screening of newly synthesised amidino substituted benzimidazoles and benzothiazoles” (Journal of Enzyme Inhibition and Medicinal Chemistry, 2021).
Read-outs that look alike come from different tables or passages of the source.

Key:
[1] = system: A549; test: BrdU proliferation assay, 2D cell culture; assay type: cell-based; details: Homo sapiens, A549, 2D cell culture, ±SD, N = 2
Protocol: Cells were grown in 96 well cell star polystyrene plates. 10,000 cells/well were seeded in wells 4 h prior the treatment with different compounds concentrations and incubated for 72 h. A cell viability assay was performed according to the manufacturer’s instruction, using CellTiter 96 aqueous solution, MTS kit (Promega, Madison, WI, USA). After 0.5–2 h of cell incubation with MTS in 2 D cell culture, the plates were read using PE EnVision absorbance at 490 nm. The results for each of tested compounds are reported as growth percentages from two independent concentrations curves compared with the untreated control cells after drug exposure. Since we prefer homogeneous assays (mix and read procedures) and therefore MTS is more practical (one step less than MTT). MTS is more sensitive and accurate in comparison with MTT assay.
(§1) Proliferation assay was performed using Cell Proliferation ELISA, BrdU (Sigma, St. Louis, MO, USA). Briefly, 48 h hours after compound addition, 10 µM of BrdU was added to each well and incubated for following 24 h. After incubation, single cell suspension was made for 3 D cell culture in the new 96 well plate. Plates were centrifuged and supernatants were removed from each plate (for 2 D and 3 D cell culture) followed by 60 min incubation at 60° C. The rest of the proliferation assay was performed according to the manufacturer instructions.
Calculation of IC50 data, curves and QC analysis is made by using Excel tools and GraphPadPrism software (La Jolla, CA), v. 5.03. In brief, individual concentration–effect curves are generated by plotting the logarithm of the tested concentration of tested compounds (X) versus corresponding percent inhibition values (Y) using least squares (ordinary) fit. […] QC criteria parameters (Z', S:B, R2, HillSlope) were checked for every IC50 curve.

[2] = system: HCC827; test: BrdU proliferation assay, 3D cell culture; assay type: cell-based; details: Homo sapiens, HCC827, 3D cell culture, ±SD, N = 2
Protocol: Cells were grown in 96 well Perfecta 3 D hanging drop plates 5000 cell/well for 4 days until spheres were formed (and checked under the microscope). After sphere formation cells were treated with compounds followed by 72 h incubation. Cell viability assay was performed according to the manufacturer’s instruction, using CellTiter GLO 3 D for 3 D cell culture (Promega); cell incubation was 5 min on the shaker followed by 25 min incubation in the dark. Plates were read using PE EnVision luminescence.
as §1
Calculation of IC50 data, curves and QC analysis is made by using Excel tools and GraphPadPrism software (La Jolla, CA), v. […] QC criteria parameters (Z', S:B, R2, HillSlope) were checked for every IC50 curve.

[3] = Kinetic solubility; assay type: physicochemical; details: aqueous buffer, kinetic from dmso stock, phosphate buffer 50 mM, pH 7.4, 1% DMSO, 37 °C
Protocol: Test compounds and assay controls (sulfaphenazole and α-naphtoflavone) were serially diluted in DMSO by factor 3.3x, 3x, 3.3x and 3x, resulting in a total of 5 different concentrations. Phosphate buffer (50 mM, pH 7.4) was spiked with diluted test compounds and controls with final concentration range in the assay as follows: 100, 30, 10, 3 and 1 µM (1% DMSO). Plate was then incubated by gentle shaking (200–300 rpm) for 1 h and 45 min at 37 °C. After additional15 min on room temperature (without shaking), plate absorbance at 620 nm was measured with microplate reader Tecan, Infinite F500 (total incubation time = 2 h).

[4] = Plasma protein binding, equilibrium dialysis; assay type: in vitro ADME; details: for fraction unbound at 4 h, 5 µM: equilibrium dialysis 4 h, 37 °C; for recovery at 4 h, 5 µM: recovery in PPB experiment (value in brackets)
Protocol: The extent of binding to plasma proteins was assessed using equilibrium dialysis method. Plasma (human and mouse) was spiked with test compounds and three controls (nicardipine and verapamil in both species, acebutolol in human and caffeine in mouse plasma) to obtain final concentration of 5 µM (0.5%DMSO). Hydrated membranes were inserted into equilibrium dialysis unit (HT Dialysis) according to manufacturer’s instructions. The dialysate side was then loaded with appropriate volume of buffer, while the same volume of spiked plasma was added into sample side of the well. Incubation lasted 4 h at 37 °C with gentle shaking. Afterwards, protein precipitation was done by mixing matrix matched aliquot of plasma or buffer with 3 volumes of MeCN/MeOH (2:1) mixture, containing internal standard (diclofenac). After centrifugation (at 4500 rpm, at 4 °C, for 30 min) resulting supernatants were subjected to LC-MS/MS.
(§2) All ADME samples were analysed on a Sciex API 4000 or Sciex API4500 Triple Quadrupole Mass Spectrometer (Sciex, Framingham, MA, USA) coupled to a UHPLC System (Shimadzu Nexera X2; Shimadzu, Kyoto, Japan). Samples were injected onto an UPLC column (HALO2 C18, 2.1 × 20 mm, 2 µm or Phenomenex Luna Omega Polar C18, 30 × 2.1 mm, 1.6 µm) and eluted with a gradient at temperature of 50 °C. The mobile phase was composed of acetonitrile (with 0.1% formic acid) and 0.1% formic acid in deionised water. A total run time was 1 or 1.5 min, with the flow rate of 0.7 ml/min (under gradient conditions). A positive ion mode with turbo spray, an ion source temperature of 500 °C and a dwell time of 150 ms were utilised for mass spectrometric detection. Multiple reaction monitoring (MRM) was used at the specific transitions for each compound/control tested: compound 5c: 361.9 → 304.9; compound 5d: 344.8 → 287.9; compound 5e: 349.8 → 292.9; compound 5 g: 350.8 → 293.9; compound 5 h: 344.0 → 286.9; compound 6a: 276.9 → 220.0; compound 5 b: 319.0 → 262.0; compound 6 b: 302.1 → 245.1; compound 6c: 344.9 → 288.0; compound 6d: 333.0 → 276.0; compound 6e: 316.1 → 259.0; compound 6f: 327.1 → 270.0; compound 6 g: 377.1 → 320.1; testosterone: 289.3→ 97.1; propranolol: 260.1 → 182.8; caffeine: 195.2 → 138.1; acebutolol: 337.2 → 116.2, nicardipine: 480.2 → 315.0; verapamil: 455.4 → 165.1; amprenavir: 506.2 → 245.4; diclofenac: 296.1 → 213.7 or 296.2 → 215.3; eucatropine: 292.2 → 109.1; benfluorex: 352.1 → 230.3, and warfarin: 309.2 → 163.2

[5] = Stability in plasma; assay type: in vitro ADME; details: 37 °C
Protocol: Tested compounds (final concentration of 5 µM, 0.5% DMSO) were incubated for 4 h at 37 °C in human and mouse plasma, respectively. Aliquots were taken at different time points (0, 30, 120 and 240 min) and reaction was terminated by addition of a MeCN/MeOH (2:1) mixture, containing internal standard (diclofenac). Samples were then centrifuged (at 4500 rpm, at 4 °C, for 30 min) and resulting supernatants were subjected to LC-MS/MS analysis. The same procedure was followed for controls used in the assay: propranolol (both species), benfluorex (mouse) and eucatropine (human), respectively.
as §2

[6] = human plasma, read-out: PPB % bound, Human (converted)
[7] = mouse plasma, read-out: PPB % bound, Mouse (converted)

IC50 [1] | IC50 [2] | solubility kinetic at 2 h [3] | fraction unbound at 4 h, 5 µM [4, 6] | recovery at 4 h, 5 µM ([4]; human plasma) | fraction unbound at 4 h, 5 µM [4, 7] | recovery at 4 h, 5 µM ([4]; mouse plasma) | remaining at 4 h, 5 µM ([5]; human plasma) | remaining at 4 h, 5 µM ([5]; mouse plasma) | Structure (SMILES)
> 50 µM | > 100 µM | > 100 µM | 0.334 | 93% | 0.249 | 98% | 86% | 95% | Cl.N#Cc1ccc(-c2nc3ccc(C4=NCCCN4)cc3s2)cc1 [Compound 5b, 2–(4-Cyanophenyl)-6–(3,4,5,6-tetrahydropyrimidin-1-ium-2-yl)benzothiazole chloride]
48 ± 0.73 µM | 21 ± 1.41 µM | > 100 µM | 0.03 | 89% | 0.025 | 86% | 83% | 94% | Cl.FC(F)(F)c1ccc(-c2nc3ccc(C4=NCCCN4)cc3s2)cc1 [Compound 5c, 2–(4-Trifluoromethylphenyl)-6–(3,4,5,6-tetrahydropyrimidin-1-ium-2-yl)benzothiazole chloride]
1 µM | 32 ± 11.7 µM | 30 to 100 µM | 0.053 | 76% | 0.04 | 82% | 81% | 85% | Cl.c1ccc2nc(-c3nc4ccc(C5=NCCCN5)cc4s3)ccc2c1 [Compound 5d, 2-(Quinoline-2-yl)-6–(3,4,5,6-tetrahydropyrimidin-1-ium-2-yl)benzothiazole chloride]
16 ± 0.39 µM | 24 ± 7.63 µM | 30 to 100 µM | 0.021 | 79% | 0.013 | 82% | 82% | 77% | Cl.c1ccc2sc(-c3nc4ccc(C5=NCCCN5)cc4s3)cc2c1 [Compound 5e, 2-(Benzo[b]thiophen-2-yl)-6–(3,4,5,6-tetrahydropyrimidin-1-ium-2-yl)benzothiazole chloride]
7 ± 2.31 µM | 17 ± 0.93 µM | 30 to 100 µM | 0.049 | 94% | 0.04 | 85% | 86% | 81% | Cl.c1ccc2sc(-c3nc4ccc(C5=NCCCN5)cc4s3)nc2c1 [Compound 5g, 2-(Benzothiazole-2-yl)-6–(3,4,5,6-tetrahydropyrimidin-1-ium-2-yl)benzothiazole chloride]
10 ± 0.78 µM | 12 ± 0.26 µM | 10 to 30 µM | 0.024 | 80% | 0.027 | 85% | 74% | 85% | Cl.c1ccc2cc(-c3nc4ccc(C5=NCCCN5)cc4s3)ccc2c1 [Compound 5h, 2-(Naphthalene-2-yl)-6–(3,4,5,6-tetrahydropyrimidin-1-ium-2-yl)benzothiazole chloride]
11 ± 5.56 µM | 12 ± 0.25 µM | > 100 µM | 0.403 | 75% | 0.371 | 79% | 73% | 79% | c1ccc(-c2nc3cc(C4=NCCCN4)ccc3[nH]2)cc1 [Compound 6a, 2-Phenyl-5(6)–(3,4,5,6-tetrahydropyrimidin-1-ium-2-yl)benzimidazole chloride]
> 50 µM | > 100 µM | > 100 µM | 0.457 | 91% | 0.365 | 87% | 98% | 119% | N#Cc1ccc(-c2nc3cc(C4=NCCCN4)ccc3[nH]2)cc1 [Compound 6b, 2–(4-Cyanophenyl)-5(6)–(3,4,5,6-tetrahydropyrimidin-1-ium-2-yl)benzimidazole chloride]
> 50 µM | > 100 µM | > 100 µM | 0.144 | 97% | 0.13 | 117% | 96% | 94% | FC(F)(F)c1ccc(-c2nc3cc(C4=NCCCN4)ccc3[nH]2)cc1 [Compound 6c, 2–(4-Trifluoromethylphenyl)-5(6)–(3,4,5,6-tetrahydropyrimidin-1-ium-2-yl)benzimidazole chloride]
> 50 µM | > 100 µM | 10 to 30 µM | 0.074 | 86% | 0.061 | 89% | 95% | 92% | c1ccc2sc(-c3nc4cc(C5=NCCCN5)ccc4[nH]3)cc2c1 [Compound 6d, 2-(Benzo[b]thiophen-2-yl)-5(6)–(3,4,5,6-tetrahydropyrimidin-1-ium-2-yl)benzimidazole chloride]
